The text below walks through data of patent US11299493B2, “Heterocyclic compounds and uses thereof” (NUVATION BIO INC., priority 2017, dated 2022).

Assay [1] deals with NCI-H460 cells. The experiment in a line: Cell proliferation assay (Cell Titer-Glo) in NCI-H460 cells. In kind it is cell-based. The note with it: Homo sapiens, typically 72 h. How it is done:
(§1) The effects of test compounds were studied in five cell lines with various histotypes. The cancer cells (Table 4) were harvested during the logarithmic growth period and counted. Adjust cell concentrations to the appropriated number with respective medium, and add 90 μL cell suspensions to 96-well plates. After cells were seeded, the plates were shaken gently to distribute cells evenly and incubated at 37° C., 5% CO2 on day 1.
(§2) Cells were treated with test compounds at 9 concentrations within a desired concentration range (e.g. 1.5 nM-10 μM) on day 2 by series diluting the test compound stock solution (10 mM in DMSO) with culture medium. Cell viability was assessed by Cell Titer-Glo® as recommended by Promega (Cat. No.: G7572, Promega) typically 72 h post-treatment.
(§3) Cell viability data were plotted using GraphPad Prism (version 5, GraphPad Software, Inc., San Diego, Calif.). In addition, a nonlinear regression model with a sigmoidal dose response and variable slope within GraphPad Prism was used to calculate the IC50 value of individual test compounds.
On the technique in general: Cellular ATP, detected with luciferase, serves as a proxy for viable cell number.

Assay [2] has as its system LoVo cells. The experiment in a line: Cell proliferation assay (Cell Titer-Glo) in LoVo cells. The note with it: Homo sapiens, typically 72 h. In kind it is cell-based. How it is done:
as §1, §2, §3

Assay [3] concerns HCT-116 cells. Nature of the assay: Cell proliferation assay (Cell Titer-Glo) in HCT-116 cells. The note with it: Homo sapiens; HCT-116, Cell Titer-Glo, typically 72 h; read-out: IC50 HCT116. The assay is classed as cell-based. How it is done:
as §1, §2, §3

The subject of assay [4] is A427 cells. The experiment in a line: Cytotoxicity assay (resazurin) in A427 cells. In kind it is cell-based. The settings on record: Homo sapiens, read-out: Cell Viability IC50 A427.
Assay [5] relates to A427 cells. The experiment in a line: Cell proliferation assay (Cell Titer-Glo) in A427 cells. The note with it: Homo sapiens, A-427, typically 72 h. In kind it is cell-based. How it is done:
as §1, §3

In assay [6] the target is WEE1 kinase enzyme (Homo sapiens (Human), UniProt P30291). Nature of the assay: WEE1 IC50 determination, LanthaScreen Terbium Labeled TR-FRET kinase assay. In kind it is biochemical. The settings on record: WEE1 enzyme 1 nM, ATP 10 μM, 1 h.
The test system of assay [7] is A549 cells. Nature of the assay: Cytotoxicity assay (resazurin) in A549 cells. The assay is classed as cell-based. The note with it: Homo sapiens, A549, 96 hr, read-out: Cell Viability IC50 A549. How it is done:
(§4) Cells were allowed to grow at 37° C. for 24 hr in 5% CO2 environment (culture conditions) in a Nuaire incubator (humidified). Serially diluted test compounds (100 μL) within the desired testing concentration ranges were added to the culture plate were further incubated in culture conditions for 72 hr and 96 hr for A427 and A549 respectively. The experiment was terminated at the designated incubation time by replacing the medium with 100 μL of 1 mM of resazurin (R7017; Sigma) prepared in respective culture medium, and the plates were further incubated in culture conditions for 4-6 hr. Fluorescence was recorded using a multimodal plate reader (Biotek Synergy Neo) at an excitation wavelength of 535 nm and emission wavelength of 590 nm to obtain relative fluorescence units. Data analysis was done by subtracting the background fluorescence (only medium blank) value from each reading and then normalizing with the vehicle control (DMSO treated cells) to obtain percent survival/proliferation. Percent survival was then subtracted by 100 to get the percent inhibition of proliferation which was used to calculate IC50 values.
On the technique in general: The colour change of resazurin is a common sign of viable cells or microbes.

Assay [8] deals with A2780 cells. The experiment in a line: Cell proliferation assay (Cell Titer-Glo) in A2780 cells. The assay is classed as cell-based. The settings on record: Homo sapiens, typically 72 h. How it is done: as §1, §2, §3
The subject of assay [9] is AsPC-1 cells. The experiment in a line: Synergistic activity with gemcitabine, combination matrix method, AsPC-1 cells. The note with it: fractional effect level of about 0.5, Chou-Talalay. The assay is classed as cell-based. How it is done:
(§5) Determination of synergistic activity of compounds in combination with a chemotherapeutic drug on cell viability is determined by a combination matrix method. Chemotherapeutics that may be used in the combination include but are not limited to a platinum-based chemotherapeutic agent, a DNA alkylating agent, a topoisomerase inhibitor, an anthracycline, a histone deacetylase inhibitor, a bromodomain inhibitor, a kinase inhibitor, a mTOR inhibitor, a PARP inhibitor, an ATM inhibitor, an ATR inhibitor, a Wee1 inhibitor, a proteasome inhibitor, and a nucleotide analog or precursor analog. Cancer cell lines that may be used in the assay include but are not limited to lung cancer, leukemia, lymphoma, multiple myeloma, ovarian cancer, breast cancer, pancreatic cancer, stomach cancer, colon cancer, liver cancer, head and neck cancer, kidney cancer, skin cancer and brain cancer cell lines. Cells are seeded in a 96-well plate and incubated at 37° C. in cell culture conditions for 24 hr. […] Measurement of fluorescence at an excitation and emission wavelength of 535 and 590 nm respectively. Synergy is evaluated with the combination index (CI) value using the Chou-Talalay method in which additive effect (CI=1), synergism (CI<1), and antagonism (CI>1) in drug combinations is determined (Chou T C. Cancer Res 2010; 70:440-6.). […]

The test system of assay [10] is A172 cells. The experiment in a line: Cytotoxicity assay (resazurin) in A172 cells. The assay is classed as cell-based. The note with it: Homo sapiens, A 172, read-out: Cell Viability IC50 A172. How it is done:
[The source words this procedure for another cell line and reports this cell line under the same test.] as §4, with “A549 (CCL-185; ATCC) and A427 (HTB-53; ATCC), both lung epithelial cell lines were seeded in their respective medium (DMEM/MEM, 10569044/41090101; Gibco) at a cell count of 1500 cells per 100 μL per well in a 96 well edge plate (167425; ThermoFisher). Cells” for “Cells”, “values. Potency of compounds in other cell lines (As-Pc-1, Panc 10.05, A172) was determined in an analogous manner.” for “values.”

Assay [11] deals with As-Pc-1 cells. The experiment in a line: Cytotoxicity assay (resazurin) in As-Pc-1 cells. In kind it is cell-based. The settings on record: Homo sapiens, ASPC1; As-Pc-1, resazurin; read-out: Cell Viability IC50 As-Pc-1. How it is done:
[The source words this procedure for another cell line and reports this cell line under the same test.] as §4, with “A549 (CCL-185; ATCC) and A427 (HTB-53; ATCC), both lung epithelial cell lines were seeded in their respective medium (DMEM/MEM, 10569044/41090101; Gibco) at a cell count of 1500 cells per 100 μL per well in a 96 well edge plate (167425; ThermoFisher). Cells” for “Cells”, “values. Potency of compounds in other cell lines (As-Pc-1, Panc 10.05, A172) was determined in an analogous manner.” for “values.”

Assay [12] concerns Panc 10.05 cells. The experiment in a line: Cytotoxicity assay (resazurin) in Panc 10.05 cells. In kind it is cell-based. The settings on record: Homo sapiens, Panc1005; Panc 10.05, resazurin; read-out: Cell Viability IC50 Panc 10.05. How it is done:
[The source words this procedure for another cell line and reports this cell line under the same test.] as §4, with “A549 (CCL-185; ATCC) and A427 (HTB-53; ATCC), both lung epithelial cell lines were seeded in their respective medium (DMEM/MEM, 10569044/41090101; Gibco) at a cell count of 1500 cells per 100 μL per well in a 96 well edge plate (167425; ThermoFisher). Cells” for “Cells”, “values. Potency of compounds in other cell lines (As-Pc-1, Panc 10.05, A172) was determined in an analogous manner.” for “values.”

Assay [13] has as its system Panc 10.05 cells. Nature of the assay: Synergistic activity with gemcitabine, combination matrix method, Panc 10.05 cells. The assay is classed as cell-based. The settings on record: fractional effect level of about 0.5, Chou-Talalay. How it is done: as §5

Sequence of WEE1 kinase enzyme (P30291 whole entry): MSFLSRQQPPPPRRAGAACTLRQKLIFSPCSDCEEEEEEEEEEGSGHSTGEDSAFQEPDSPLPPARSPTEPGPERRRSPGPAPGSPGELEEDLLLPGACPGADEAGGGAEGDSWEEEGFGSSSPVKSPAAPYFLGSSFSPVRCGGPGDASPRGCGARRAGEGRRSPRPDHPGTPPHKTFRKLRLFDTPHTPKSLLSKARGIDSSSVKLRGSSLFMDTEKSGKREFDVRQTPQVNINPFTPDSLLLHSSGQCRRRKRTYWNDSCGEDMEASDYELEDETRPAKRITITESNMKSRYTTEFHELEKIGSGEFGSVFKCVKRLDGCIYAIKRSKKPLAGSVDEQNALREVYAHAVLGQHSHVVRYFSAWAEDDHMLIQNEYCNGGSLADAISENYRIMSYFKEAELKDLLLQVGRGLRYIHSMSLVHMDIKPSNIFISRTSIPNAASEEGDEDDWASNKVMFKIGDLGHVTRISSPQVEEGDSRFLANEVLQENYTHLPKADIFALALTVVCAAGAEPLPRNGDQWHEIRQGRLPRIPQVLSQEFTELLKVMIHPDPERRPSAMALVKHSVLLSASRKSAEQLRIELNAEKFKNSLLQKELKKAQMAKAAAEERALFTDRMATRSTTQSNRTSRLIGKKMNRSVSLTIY

In general, IC50 refers to the concentration that inhibits the measured activity by half. As for `C=CCn1c(=O)c2cnc(Nc3ccc4c(c3)CNCC4)nc2n1-c1cccc(C(C)(C)O)n1` [Example 1.1], the IC50 in assay [1] was more than 10 µM; in assay [2], 0.258 µM; in assay [3] it was 1.04 µM; in [4] (A-427, A427, 72 hr), 0.095 µM; in [5] it was 0.064 µM; in assay [6], 0.0024 µM. For the same molecule, the IC50 in assay [7] was 0.46 µM.

As for `CCn1c(=O)c2cnc(Nc3ccc4c(c3)CNCC4)nc2n1-c1cccc(C(C)(C)O)n1` [Example 1.7], the IC50 in [4] (A-427, 72 h, A427, 72 hr) was 0.8 µM; in [8] it was 1.1 µM; in [6], 0.003 µM; in assay [7], 0.66 µM.

On to `CC(C)n1c(=O)c2cnc(Nc3ccc4c(c3)CCNC4)nc2n1-c1ccnc(C(C)(C)C)c1` [Example 1.138], for which the “combination index with gemcitabine” value in assay [9] and in assay [13] was “less than 1” in each case. In addition, the IC50 in assay [10] was found to be 4.09 µM; in assay [11] it was 0.2 µM; in assay [12] it was 2.82 µM; in assay [4] (A-427, 72 h, A427, 72 hr), 0.993 µM; in assay [6], 0.006 µM; in assay [7] it was 2.42 µM.
